Assay results: PubChem BioAssay (NCI)
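Step 1: Grow cells in 96-well plates. Step 2: Expose to compound for 48 hours at 5 concentrations. Step 3: Interpolate endpoints linearly; if unreached, use highest concentration. TGI denotes the concentration required for complete inhibition of growth.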

Assays:
Test in all cases: growth of human tumour cells (NCI), 48 h
MDA-MB-435 = test system: MDA-MB-435
LOX IMVI melanoma = test system: LOX IMVI melanoma
SF-268 CNS = test system: SF-268 CNS
OVCAR-4 ovarian = test system: OVCAR-4 ovarian
786-0 renal = test system: 786-0 renal
HS 578T breast = test system: HS 578T breast
SK-MEL-28 melanoma = test system: SK-MEL-28 melanoma
K-562 leukemia = test system: K-562 leukemia
HCC-2998 colon = test system: HCC-2998 colon
KM12 colon = test system: KM12 colon
HCT-116 colon = test system: HCT-116 colon
CCRF-CEM leukemia = test system: CCRF-CEM leukemia
SF-295 CNS = test system: SF-295 CNS
IGROV1 ovarian = test system: IGROV1 ovarian
BT-549 breast = test system: BT-549 breast
COLO 205 colon = test system: COLO 205 colon
MALME-3M melanoma = test system: MALME-3M melanoma
SW-620 colon = test system: SW-620 colon
HT29 colon = test system: HT29 colon
MOLT-4 leukemia = test system: MOLT-4 leukemia
NCI-H226 lung = test system: NCI-H226 lung
UACC-62 melanoma = test system: UACC-62 melanoma
NCI-H522 lung = test system: NCI-H522 lung
EKVX NSCLC = test system: EKVX NSCLC
OVCAR-8 ovarian = test system: OVCAR-8 ovarian
PC-3 prostate = test system: PC-3 prostate
SN12C renal = test system: SN12C renal
SNB-19 CNS = test system: SNB-19 CNS
SF-539 CNS = test system: SF-539 CNS
MCF7 breast = test system: MCF7 breast
HL-60(TB) leukemia = test system: HL-60(TB) leukemia
SK-MEL-5 melanoma = test system: SK-MEL-5 melanoma
SK-OV-3 ovarian = test system: SK-OV-3 ovarian
T-47D breast = test system: T-47D breast
NCI/ADR-RES ovarian = test system: NCI/ADR-RES ovarian
SK-MEL-2 melanoma = test system: SK-MEL-2 melanoma
TK-10 renal = test system: TK-10 renal
A498 renal = test system: A498 renal
MDA-MB-231 breast = test system: MDA-MB-231 breast
DU-145 prostate = test system: DU-145 prostate
CAKI-1 renal = test system: CAKI-1 renal
A549 NSCLC = test system: A549 NSCLC
UACC-257 melanoma = test system: UACC-257 melanoma
OVCAR-3 ovarian = test system: OVCAR-3 ovarian
U251 CNS = test system: U251 CNS
NCI-H23 lung = test system: NCI-H23 lung
ACHN renal = test system: ACHN renal
NCI-H460 lung = test system: NCI-H460 lung
M14 melanoma = test system: M14 melanoma
MDA-N = test system: MDA-N
SR leukemia = test system: SR leukemia
HOP-92 NSCLC = test system: HOP-92 NSCLC
UO-31 renal = test system: UO-31 renal
RPMI-8226 leukemia = test system: RPMI-8226 leukemia
HOP-62 NSCLC = test system: HOP-62 NSCLC
OVCAR-5 ovarian = test system: OVCAR-5 ovarian
HCT-15 colon = test system: HCT-15 colon
SNB-75 CNS = test system: SNB-75 CNS
RXF 393 renal = test system: RXF 393 renal

Measured: TGI

O=C(CC(=O)Nc1ccc(C(=O)O)cc1)Nc1ccc(C(=O)O)cc1
> 100 µM: MDA-MB-435 | LOX IMVI melanoma | SF-268 CNS | OVCAR-4 ovarian | 786-0 renal | HS 578T breast | SK-MEL-28 melanoma | K-562 leukemia | HCC-2998 colon | KM12 colon | HCT-116 colon | CCRF-CEM leukemia | SF-295 CNS | IGROV1 ovarian | BT-549 breast | COLO 205 colon | MALME-3M melanoma | SW-620 colon | HT29 colon | MOLT-4 leukemia | NCI-H226 lung | UACC-62 melanoma | NCI-H522 lung | EKVX NSCLC | OVCAR-8 ovarian | PC-3 prostate | SN12C renal | SNB-19 CNS | SF-539 CNS | MCF7 breast | HL-60(TB) leukemia | SK-MEL-5 melanoma | SK-OV-3 ovarian | T-47D breast | NCI/ADR-RES ovarian | TK-10 renal | A498 renal | MDA-MB-231 breast | DU-145 prostate | CAKI-1 renal | A549 NSCLC | UACC-257 melanoma | OVCAR-3 ovarian | U251 CNS | NCI-H23 lung | ACHN renal | NCI-H460 lung | M14 melanoma | MDA-N | SR leukemia | HOP-92 NSCLC | UO-31 renal | RPMI-8226 leukemia
40 µM: SK-MEL-2 melanoma

COc1ccc(-n2sc3ncc(C)cc3c2=O)cc1
52.6 µM: U251 CNS
31.9 µM: HT29 colon
44.7 µM: A549 NSCLC
31 µM: 786-0 renal
44 µM: DU-145 prostate
35.6 µM: BT-549 breast
44.2 µM: MCF7 breast
38.7 µM: HCT-15 colon
40.5 µM: MDA-MB-435
45.9 µM: HOP-62 NSCLC
64.4 µM: NCI/ADR-RES ovarian
35.4 µM: SN12C renal
29 µM: PC-3 prostate
> 100 µM: OVCAR-4 ovarian | K-562 leukemia | HCC-2998 colon | SF-295 CNS | IGROV1 ovarian | MOLT-4 leukemia | SNB-19 CNS | SK-OV-3 ovarian | NCI-H460 lung | SR leukemia
45.8 µM: NCI-H522 lung
40.6 µM: SF-268 CNS
38.5 µM: MALME-3M melanoma
34.7 µM: OVCAR-5 ovarian
42.1 µM: HOP-92 NSCLC
83.7 µM: HS 578T breast
34.9 µM: UACC-62 melanoma
57.7 µM: NCI-H23 lung
31.8 µM: MDA-N
35.2 µM: OVCAR-8 ovarian
32.4 µM: OVCAR-3 ovarian
26 µM: SK-MEL-5 melanoma
32.3 µM: ACHN renal
39.4 µM: T-47D breast
37.5 µM: CCRF-CEM leukemia
52.7 µM: SK-MEL-2 melanoma
73 µM: SK-MEL-28 melanoma
29.6 µM: KM12 colon
84.6 µM: NCI-H226 lung
89.6 µM: SW-620 colon
30.7 µM: MDA-MB-231 breast
67.2 µM: RPMI-8226 leukemia
31.4 µM: UO-31 renal
33.6 µM: EKVX NSCLC
32.7 µM: M14 melanoma
29.5 µM: COLO 205 colon
34.5 µM: HCT-116 colon
33.2 µM: TK-10 renal

COc1ccc(-c2c3ccccc3c(-c3ccc(OCCBr)cc3)c3ccccc23)cc1
> 100 µM: MDA-MB-435 | LOX IMVI melanoma | SF-268 CNS | OVCAR-4 ovarian | 786-0 renal | HS 578T breast | SK-MEL-28 melanoma | HCC-2998 colon | KM12 colon | HCT-116 colon | CCRF-CEM leukemia | SF-295 CNS | IGROV1 ovarian | BT-549 breast | COLO 205 colon | MALME-3M melanoma | SW-620 colon | HT29 colon | MOLT-4 leukemia | HOP-62 NSCLC | NCI-H226 lung | UACC-62 melanoma | NCI-H522 lung | EKVX NSCLC | OVCAR-8 ovarian | PC-3 prostate | SN12C renal | SNB-75 CNS | SNB-19 CNS | SF-539 CNS | OVCAR-5 ovarian | MCF7 breast | HL-60(TB) leukemia | SK-MEL-5 melanoma | SK-OV-3 ovarian | T-47D breast | NCI/ADR-RES ovarian | SK-MEL-2 melanoma | TK-10 renal | A498 renal | MDA-MB-231 breast | DU-145 prostate | CAKI-1 renal | A549 NSCLC | UACC-257 melanoma | OVCAR-3 ovarian | U251 CNS | NCI-H23 lung | ACHN renal | NCI-H460 lung | HCT-15 colon | M14 melanoma | MDA-N | SR leukemia | RXF 393 renal | RPMI-8226 leukemia
1.61 µM: UO-31 renal

CCCCCC(=O)n1[nH]c(=O)n(-c2ccc(OC)cc2)c1=O
> 100 µM: MDA-MB-435 | LOX IMVI melanoma | SF-268 CNS | OVCAR-4 ovarian | 786-0 renal | HS 578T breast | SK-MEL-28 melanoma | K-562 leukemia | HCC-2998 colon | KM12 colon | HCT-116 colon | CCRF-CEM leukemia | SF-295 CNS | IGROV1 ovarian | BT-549 breast | COLO 205 colon | MALME-3M melanoma | SW-620 colon | HT29 colon | MOLT-4 leukemia | HOP-62 NSCLC | NCI-H226 lung | UACC-62 melanoma | NCI-H522 lung | EKVX NSCLC | OVCAR-8 ovarian | PC-3 prostate | SN12C renal | SNB-75 CNS | SNB-19 CNS | OVCAR-5 ovarian | MCF7 breast | HL-60(TB) leukemia | SK-MEL-5 melanoma | SK-OV-3 ovarian | T-47D breast | NCI/ADR-RES ovarian | SK-MEL-2 melanoma | TK-10 renal | MDA-MB-231 breast | DU-145 prostate | CAKI-1 renal | A549 NSCLC | UACC-257 melanoma | OVCAR-3 ovarian | U251 CNS | NCI-H23 lung | ACHN renal | NCI-H460 lung | HCT-15 colon | M14 melanoma | MDA-N | SR leukemia | RXF 393 renal | UO-31 renal | RPMI-8226 leukemia

Clc1ccc(Cl)c(NNc2cc(Cl)ccc2Cl)c1
9.7 µM: MALME-3M melanoma
> 10 µM: MDA-MB-435 | LOX IMVI melanoma | SF-268 CNS | OVCAR-4 ovarian | 786-0 renal | HS 578T breast | SK-MEL-28 melanoma | K-562 leukemia | HCC-2998 colon | KM12 colon | HCT-116 colon | CCRF-CEM leukemia | SF-295 CNS | IGROV1 ovarian | BT-549 breast | COLO 205 colon | SW-620 colon | HT29 colon | MOLT-4 leukemia | HOP-62 NSCLC | NCI-H226 lung | UACC-62 melanoma | NCI-H522 lung | EKVX NSCLC | OVCAR-8 ovarian | PC-3 prostate | SN12C renal | SNB-19 CNS | SF-539 CNS | OVCAR-5 ovarian | MCF7 breast | HL-60(TB) leukemia | SK-OV-3 ovarian | T-47D breast | TK-10 renal | A498 renal | MDA-MB-231 breast | DU-145 prostate | CAKI-1 renal | A549 NSCLC | UACC-257 melanoma | U251 CNS | NCI-H460 lung | HCT-15 colon | M14 melanoma | MDA-N | SR leukemia | RXF 393 renal | RPMI-8226 leukemia
7.43 µM: ACHN renal
7.81 µM: OVCAR-3 ovarian
8.6 µM: SK-MEL-2 melanoma
7.18 µM: NCI-H23 lung
6.35 µM: SK-MEL-5 melanoma
9 µM: NCI/ADR-RES ovarian
